Where two headings read alike, the source gives them in different places. No end group written: not given here.
Experiments:
indicator strains = details: indicator strain not given; cited from earlier work
[1] = cited from earlier work
E. aerogenes LMG 02094 = test: microbe, parasite or virus in culture; format: cell-based, Enterobacter aerogenes; details: LMG 02094
Experimental: (§1) Escherichia coli, Klebsiella pneumoniae, Pseudomonas aeruginosa, Acinetobacter baumannii, Enterobacter aerogenes were grown in Luria-Bertani (LB) broth shaken (200 rpm) or on LB agar at 37° C. […] MICs tests were performed in duplicate by a liquid growth inhibition microdilution assays in sterilized polypropylene microtiter plates according to Wiegand and […] [27]. […] The suspension was diluted in a ratio of 1:100 using Mueller Hinton Broth (MHB) and the final inoculum is 5*10^5 CFU/mL. […] The antimicrobials were diluted serially by 1/2 one by one and 50 uL diluted bacterial suspension were added to each well to make the final volume to be 100 uL. Growth control was accomplished by remove 10 uL from well 11 and dilute 1000 times to plate 1/10 suspension on the solid medium. […] The number of colonies on the control agar plate should be around 50 to ensure the concentration of the inoculum and the effectiveness of the experiment. The lowest concentration of the antimicrobials that inhibits visible growth of the indicator is identified as MIC.

A. baumannii LMG01041 = test: microbe, parasite or virus in culture; format: cell-based, Acinetobacter baumannii; details: LMG01041
Experimental: as §1

Gram-negative pathogens = format: cell-based; details: L-form GNPs alone; five Gram-negative pathogens
Experimental: as §1

E. coli LMG15862 = test: microbe, parasite or virus in culture; format: cell-based, Escherichia coli; details: L-form GNP; E. coli LMG15862; Table 6
Experimental: as §1

P. aeruginosa LMG 6395 = test: microbe, parasite or virus in culture; format: cell-based, Pseudomonas aeruginosa; details: LMG 6395
Experimental: as §1

K. pneumoniae LMG20218 = test: microbe, parasite or virus in culture; format: cell-based, Klebsiella pneumoniae; details: LMG20218
Experimental: as §1

Row | Molecule | Biological activity (relative to the wild type) (indicator strains) | Biological activity (relative to the wild type) ([1]; gene nisA (nisin A mutants)) | other results
1 | CN[C@H](CC(C)C)C(=O)N[C@H]1C(=O)N[C@@H](CC(N)=O)C(=O)N[C@H]2C(=O)N[C@H]3C(=O)N[C@H](C(=O)N[C@H](C(=O)O)c4cc(O)cc(O)c4-c4cc3ccc4O)[C@H](O)c3ccc(c(Cl)c3)Oc3cc2cc(c3O[C@@H]2O[C@H](CO)[C@@H](O)[C@H](O)[C@H]2O[C@H]2C[C@](C)(NCc3ccc(-c4ccc(Cl)cc4)cc3)[C@H](O)[C@H](C)O2)Oc2ccc(cc2Cl)[C@H]1O [Compound 1, Chlorobiphenyl Vancomycin] | Increased (Increased activity, >120% compared with the activity of vancomycin) | – | –
2 | CCCCCCCCCCNCCN[C@@]1(C)C[C@H](O[C@H]2[C@H](Oc3c4cc5cc3Oc3ccc(cc3Cl)[C@@H](O)[C@@H](NC(=O)[C@@H](CC(C)C)NC)C(=O)N[C@@H](CC(N)=O)C(=O)N[C@H]5C(=O)N[C@H]3C(=O)N[C@H](C(=O)N[C@H](C(=O)O)c5cc(O)c(CNCP(=O)(O)O)c(O)c5-c5cc3ccc5O)[C@H](O)c3ccc(c(Cl)c3)O4)O[C@H](CO)[C@@H](O)[C@@H]2O)O[C@@H](C)[C@H]1O [Telavancin] | Increased (Increased activity, >120% compared with the activity of vancomycin) | – | –
3 | Chlorobiphenyl Des-methyl vancomycin [Compound 8] | Increased (Increased activity, >120% compared with the activity of vancomycin) | – | –
4 | K12V (ITSISLCTPGCVTGALMGCNMKTATCHCSIHVSK; cysteine pairing not given here; also: lantibiotic nisin-A; UniProt P13068 24-57, looked up, variant K12V) | – | Increased (Increased activity, >120% compared to the activity of wild type nisin A/Z) | –
5 | K22S (ITSISLCTPGCKTGALMGCNMSTATCHCSIHVSK; cysteine pairing not given here; also: lantibiotic nisin-A; UniProt P13068 24-57, looked up, variant K22S) | – | Increased (Increased activity, >120% compared to the activity of wild type nisin A/Z) | –
6 | M21V (ITSISLCTPGCKTGALMGCNVKTATCHCSIHVSK; cysteine pairing not given here; also: lantibiotic nisin-A; UniProt P13068 24-57, looked up, variant M21V) | – | Increased (Increased activity, >120% compared to the activity of wild type nisin A/Z) | –
7 | N20P (ITSISLCTPGCKTGALMGCPMKTATCHCSIHVSK; not fully specified; cysteine pairing not given here; also: lantibiotic nisin-A; UniProt P13068 24-57, looked up, variant N20P) | – | Increased (Increased activity, >120% compared to the activity of wild type nisin A/Z) | –
8 | N20V (ITSISLCTPGCKTGALMGCVMKTATCHCSIHVSK; not fully specified; cysteine pairing not given here; also: lantibiotic nisin-A; UniProt P13068 24-57, looked up, variant N20V) | – | – | Biological activity (relative to the wild type) ([1]; gene nisZ (nisin Z mutants)): Increased (Increased activity, >120% compared to the activity of wild type nisin A/Z)
9 | RIWVIWRR-NH2 [GNP-5] | – | – | MICb (MIC of GNP alone) (E. aerogenes LMG 02094): 5 µM; MICb (MIC of GNP alone) (A. baumannii LMG01041): 2 µM; Activity ranking amongst all the GNPs (Gram-negative pathogens): most potent; MICb (GNP concentration when used alone) (E. coli LMG15862): 3 µM; MICb (MIC of GNP alone) (P. aeruginosa LMG 6395): 3 µM; MICb (MIC of GNP alone) (K. pneumoniae LMG20218): 6 µM
10 | Teicoplanin [2a] | Increased (Increased activity, >120% compared with the activity of vancomycin) | – | –
